# Assay results: patent US12441703B2, “Carboxamides as modulators of sodium channels” (VERTEX PHARMACEUTICALS INCORPORATED, priority 2019, dated 2025)
# Molecular target: human NaV 1.8 (Homo sapiens, UniProt Q9Y5Y9)
# Test: E-VIPR assay for detecting and measuring NaV inhibition properties
# Format: cell-based
# Conditions: E-VIPR assay conducted in the presence of human serum; HEK cells expressing truncated human NaV 1.8
# In short: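 Membrane-potential (coumarin/oxonol) readout after 10 s of 10 Hz biphasic electrical stimulation on E-VIPR. Compounds: 11-point 3-fold dilutions, […], 0.625% DMSO, 30 min at room temperature, human serum optional. Cells: HEK expressing truncated human NaV1.8 co-transduced with KIR2.1.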
# Chain of human NaV 1.8 (Q9Y5Y9 whole entry, looked up): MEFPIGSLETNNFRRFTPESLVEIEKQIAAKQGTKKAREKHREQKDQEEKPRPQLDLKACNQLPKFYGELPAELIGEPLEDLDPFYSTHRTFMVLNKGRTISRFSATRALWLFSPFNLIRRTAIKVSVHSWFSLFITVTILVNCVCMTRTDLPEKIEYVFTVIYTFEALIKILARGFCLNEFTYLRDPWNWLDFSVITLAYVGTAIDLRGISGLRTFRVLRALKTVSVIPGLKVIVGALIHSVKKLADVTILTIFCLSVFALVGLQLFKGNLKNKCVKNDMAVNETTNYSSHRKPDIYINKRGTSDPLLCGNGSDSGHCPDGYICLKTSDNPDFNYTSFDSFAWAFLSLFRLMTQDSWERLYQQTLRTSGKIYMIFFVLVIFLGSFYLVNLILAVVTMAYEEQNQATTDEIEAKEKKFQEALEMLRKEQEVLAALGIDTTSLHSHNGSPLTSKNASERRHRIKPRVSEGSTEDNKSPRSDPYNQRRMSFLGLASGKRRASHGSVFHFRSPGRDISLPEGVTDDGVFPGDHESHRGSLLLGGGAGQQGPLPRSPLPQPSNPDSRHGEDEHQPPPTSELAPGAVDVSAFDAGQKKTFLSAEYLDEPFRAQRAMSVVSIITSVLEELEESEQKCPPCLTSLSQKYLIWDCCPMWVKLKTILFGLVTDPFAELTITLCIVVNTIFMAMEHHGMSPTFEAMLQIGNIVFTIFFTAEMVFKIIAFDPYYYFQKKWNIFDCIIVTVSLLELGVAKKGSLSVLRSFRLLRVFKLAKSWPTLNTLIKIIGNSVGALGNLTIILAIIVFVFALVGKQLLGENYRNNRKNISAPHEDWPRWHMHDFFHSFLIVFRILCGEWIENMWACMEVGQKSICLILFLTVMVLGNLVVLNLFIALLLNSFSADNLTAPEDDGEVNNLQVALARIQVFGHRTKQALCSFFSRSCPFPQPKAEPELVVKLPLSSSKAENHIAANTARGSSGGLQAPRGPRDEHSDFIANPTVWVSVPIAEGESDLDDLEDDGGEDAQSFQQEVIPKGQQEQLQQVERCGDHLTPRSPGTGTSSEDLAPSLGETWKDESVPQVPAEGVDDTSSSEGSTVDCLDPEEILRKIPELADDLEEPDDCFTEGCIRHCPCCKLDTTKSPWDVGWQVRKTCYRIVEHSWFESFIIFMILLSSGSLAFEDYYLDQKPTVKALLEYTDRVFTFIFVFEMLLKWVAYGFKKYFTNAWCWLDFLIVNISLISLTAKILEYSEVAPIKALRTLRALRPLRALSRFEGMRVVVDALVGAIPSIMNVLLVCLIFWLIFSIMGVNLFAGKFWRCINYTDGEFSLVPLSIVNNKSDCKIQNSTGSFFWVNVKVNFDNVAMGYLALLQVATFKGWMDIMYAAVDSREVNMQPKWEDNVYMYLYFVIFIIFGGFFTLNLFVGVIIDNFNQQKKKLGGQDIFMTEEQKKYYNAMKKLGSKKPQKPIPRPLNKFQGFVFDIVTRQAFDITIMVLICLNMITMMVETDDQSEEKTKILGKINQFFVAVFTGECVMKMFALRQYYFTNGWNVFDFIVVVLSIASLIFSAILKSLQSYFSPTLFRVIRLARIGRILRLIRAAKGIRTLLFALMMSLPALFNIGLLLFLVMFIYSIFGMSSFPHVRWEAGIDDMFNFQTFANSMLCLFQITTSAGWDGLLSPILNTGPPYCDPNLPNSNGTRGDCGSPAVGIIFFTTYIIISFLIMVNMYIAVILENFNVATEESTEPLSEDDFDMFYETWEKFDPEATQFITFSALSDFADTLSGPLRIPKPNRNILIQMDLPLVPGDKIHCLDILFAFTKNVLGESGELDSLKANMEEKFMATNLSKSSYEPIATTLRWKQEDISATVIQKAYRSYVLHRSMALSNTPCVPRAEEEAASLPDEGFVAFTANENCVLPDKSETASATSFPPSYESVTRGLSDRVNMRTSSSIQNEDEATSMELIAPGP
row,Compound,IC50
1,"COc1cc(OC(F)(F)F)ccc1Oc1ccc(-c2ccccc2)c(F)c1C(=O)Nc1ccnc(C(N)=O)c1 [Compound 177, 4-[[2-fluoro-6-[2-methoxy-4-(trifluoromethoxy)phenoxy]-3-phenyl-benzoyl]amino]pyridine-2-carboxamide]",20 nM

# Same assay, conditions: E-VIPR assay conducted in the presence of human serum; HEK cells expressing truncated human NaV 1.8; read-out: IC50
row,IC50,Compound
1,490 nM,"NC(=O)c1ccc(NC(=O)c2c(Oc3ccc(F)cc3Cl)ccc(C(F)(F)F)c2F)cn1 [Compound 176, 5-[[6-(2-chloro-4-fluoro-phenoxy)-2-fluoro-3-(trifluoromethyl)benzoyl]amino]pyridine-2-carboxamide]"
2,2000 nM,"COc1c(Oc2ccc(C(F)(F)F)c(C)c2C(=O)Nc2ccc(C(N)=O)nc2)ccc(F)c1F [Compound 179, 5-[[6-(3,4-difluoro-2-methoxy-phenoxy)-2-methyl-3-(trifluoromethyl)benzoyl]amino]pyridine-2-carboxamide]"
3,510 nM,"COc1c(Oc2ccc(C(F)(F)F)c(C)c2C(=O)Nc2cc(C(N)=O)ncc2C)ccc(F)c1F [Compound 180, 4-[[6-(3,4-difluoro-2-methoxy-phenoxy)-2-methyl-3-(trifluoromethyl)benzoyl]amino]-5-methyl-pyridine-2-carboxamide]"
4,290 nM,COc1cc(OC(F)(F)F)ccc1Oc1ccc(C2CC2)c(C)c1C(=O)Nc1ccc(C(N)=O)nc1 [Compound 182]
5,14 nM,"CCc1c(C(F)(F)F)ccc(Oc2ccc(OC(F)(F)F)cc2OC)c1C(=O)Nc1ccnc(C(N)=O)c1 [Compound 183, 4-[[2-ethyl-6-[2-methoxy-4-(trifluoromethoxy)phenoxy]-3-(trifluoromethyl)benzoyl]amino]pyridine-2-carboxamide]"
6,140 nM,CCc1c(C(F)(F)F)ccc(Oc2ccc(OC(F)(F)F)cc2OC)c1C(=O)Nc1ccc(C(N)=O)nc1 [Compound 184]
7,490 nM,"COc1cc(OC(F)(F)F)ccc1Oc1cc(C(F)(F)F)cc(C)c1C(=O)Nc1ccc(C(N)=O)nc1 [Compound 187, 5-[[2-[2-methoxy-4-(trifluoromethoxy)phenoxy]-6-methyl-4-(trifluoromethyl)benzoyl]amino]pyridine-2-carboxamide]"
8,1500 nM,"Cc1c(C(F)(F)F)ccc(Oc2ccc(F)cc2Cl)c1C(=O)Nc1ccc(C(N)=O)nc1 [Compound 190, 5-[[6-(2-chloro-4-fluoro-phenoxy)-2-methyl-3-(trifluoromethyl)benzoyl]amino]pyridine-2-carboxamide]"
9,2 nM,"COc1cc(OC(F)(F)F)ccc1Oc1ccc(C(F)(F)F)c(Cl)c1C(=O)Nc1ccnc(C(N)=O)c1 [Compound 191, 4-[[2-chloro-6-[2-methoxy-4-(trifluoromethoxy)phenoxy]-3-(trifluoromethyl)benzoyl]amino]pyridine-2-carboxamide]"
10,6 nM,COc1c(Oc2ccc(C(F)(F)F)c(Cl)c2C(=O)Nc2ccnc(C(N)=O)c2)ccc(F)c1F [Compound 193]
11,2 nM,"COc1cc(OC(F)(F)F)ccc1Oc1ccc(C(F)(F)F)c(Br)c1C(=O)Nc1ccnc(C(N)=O)c1 [Compound 194, 4-[[2-bromo-6-[2-methoxy-4-(trifluoromethoxy)phenoxy]-3-(trifluoromethyl)benzoyl]amino]pyridine-2-carboxamide]"
12,5 nM,COc1c(Oc2ccc(C(F)(F)F)c(Br)c2C(=O)Nc2ccnc(C(N)=O)c2)ccc(OC(F)(F)F)c1F [Compound 195]
13,9 nM,"COc1c(Oc2ccc(C3CC3)c(C)c2C(=O)Nc2ccnc(C(N)=O)c2)ccc(OC(F)(F)F)c1F [Compound 196, 4-[[3-cyclopropyl-6-[3-fluoro-2-methoxy-4-(trifluoromethoxy)phenoxy]-2-methyl-benzoyl]amino]pyridine-2-carboxamide]"
14,120 nM,"COc1c(Oc2ccc(C3CC3)c(C)c2C(=O)Nc2ccc(C(N)=O)nc2)ccc(OC(F)(F)F)c1F [Compound 197, 5-[[3-cyclopropyl-6-[3-fluoro-2-methoxy-4-(trifluoromethoxy)phenoxy]-2-methyl-benzoyl]amino]pyridine-2-carboxamide]"
15,360 nM,"NC(=O)c1ccc(NC(=O)c2c(Oc3ccc(OC(F)(F)F)cc3C3CC3)ccc(C(F)(F)F)c2F)cn1 [Compound 206, 5-[[6-[2-cyclopropyl-4-(trifluoromethoxy)phenoxy]-2-fluoro-3-(trifluoromethyl)benzoyl]amino]pyridine-2-carboxamide]"
16,370 nM,"Cc1c(Oc2ccc(C(F)(F)F)c(F)c2C(=O)Nc2ccc(C(N)=O)nc2)ccc(F)c1F [Compound 207, 5-[[6-(3,4-difluoro-2-methyl-phenoxy)-2-fluoro-3-(trifluoromethyl)benzoyl]amino]pyridine-2-carboxamide]"
17,> 3000 nM,"Cc1cc(Cl)cc(C)c1Oc1ccc(C(F)(F)F)c(F)c1C(=O)Nc1ccc(C(N)=O)nc1 [Compound 208, 5-[[6-(4-chloro-2,6-dimethyl-phenoxy)-2-fluoro-3-(trifluoromethyl)benzoyl]amino]pyridine-2-carboxamide]"
18,8 nM,"COc1c(Oc2ccc(C(F)(F)F)c(F)c2C(=O)Nc2ccc(C(N)=O)nc2)ccc(OC(F)(F)F)c1F [Compound 209, 5-[[2-fluoro-6-[3-fluoro-2-methoxy-4-(trifluoromethoxy)phenoxy]-3-(trifluoromethyl)benzoyl]amino]pyridine-2-carboxamide]"

# The remaining lines, values behind:
row,Compound,IC50
1,"[2H]C([2H])([2H])Oc1cc(OC(F)(F)F)ccc1Oc1cc(C(F)(F)F)cnc1C(=O)Nc1ccc(C(N)=O)nc1 [Compound 174, N-(6-carbamoyl-3-pyridyl)-3-[2-(trideuteriomethoxy)-4-(trifluoromethoxy)phenoxy]-5-(trifluoromethyl)pyridine-2-carboxamide]",> 3000 nM
2,"CCc1cc(C(F)(F)F)cc(Oc2ccc(OC(F)(F)F)cc2OC)c1C(=O)Nc1ccnc(C(N)=O)c1 [Compound 178, 4-[[2-ethyl-6-[2-methoxy-4-(trifluoromethoxy)phenoxy]-4-(trifluoromethyl)benzoyl]amino]pyridine-2-carboxamide]",27 nM
3,"COc1cc(OC(F)(F)F)ccc1Oc1ccc(C2CC2)c(C)c1C(=O)Nc1ccnc(C(N)=O)c1 [Compound 181, 4-[[3-cyclopropyl-6-[2-methoxy-4-(trifluoromethoxy)phenoxy]-2-methyl-benzoyl]amino]pyridine-2-carboxamide]",12 nM
4,"COc1cc(OC(F)(F)F)ccc1Oc1ccc(CC(C)C)c(C)c1C(=O)Nc1ccnc(C(N)=O)c1 [Compound 185, 4-[[3-isobutyl-6-[2-methoxy-4-(trifluoromethoxy)phenoxy]-2-methyl-benzoyl]amino]pyridine-2-carboxamide]",11 nM
5,"COc1cc(OC(F)(F)F)ccc1Oc1cc(C(F)(F)F)cc(C)c1C(=O)Nc1cc(C(N)=O)ncc1C [Compound 186, 4-[[2-[2-methoxy-4-(trifluoromethoxy)phenoxy]-6-methyl-4-(trifluoromethyl)benzoyl]amino]-5-methyl-pyridine-2-carboxamide]",110 nM
6,"COc1cc(OC(F)(F)F)ccc1Oc1cc(C(F)(F)F)cc(C)c1C(=O)Nc1ccnc(C(N)=O)c1 [Compound 188, 4-[[2-[2-methoxy-4-(trifluoromethoxy)phenoxy]-6-methyl-4-(trifluoromethyl)benzoyl]amino]pyridine-2-carboxamide]",24 nM
7,"COc1c(Oc2cc(C(F)(F)F)cc(C)c2C(=O)Nc2ccnc(C(N)=O)c2)ccc(F)c1F [Compound 189, 4-[[2-(3,4-difluoro-2-methoxy-phenoxy)-6-methyl-4-(trifluoromethyl)benzoyl]amino]pyridine-2-carboxamide]",170 nM
8,NC(=O)c1cc(NC(=O)c2c(Oc3ccc(OC(F)(F)F)cc3Cl)ccc(C(F)(F)F)c2Cl)ccn1 [Compound 192],4 nM
9,"COc1cc(OC(F)(F)F)ccc1Oc1ccc(C2CC2)c(C)c1C(=O)Nc1cc(C(N)=O)ncc1C [Compound 198, 4-[[3-cyclopropyl-6-[2-methoxy-4-(trifluoromethoxy)phenoxy]-2-methyl-benzoyl]amino]-5-methyl-pyridine-2-carboxamide]",15 nM
10,"Cc1c(C2CC2)ccc(Oc2ccc(OC(F)(F)F)cc2Cl)c1C(=O)Nc1ccnc(C(N)=O)c1 [Compound 199, 4-[[6-[2-chloro-4-(trifluoromethoxy)phenoxy]-3-cyclopropyl-2-methyl-benzoyl]amino]pyridine-2-carboxamide]",21 nM
11,"COc1cc(OC(F)(F)F)ccc1Oc1cc(C(F)F)cc(C)c1C(=O)Nc1ccnc(C(N)=O)c1 [Compound 200, 4-[[4-(difluoromethyl)-2-[2-methoxy-4-(trifluoromethoxy)phenoxy]-6-methyl-benzoyl]amino]pyridine-2-carboxamide]",85 nM
12,"COc1cc(OC(F)(F)F)ccc1Oc1cc(C2CC2)c(C2CC2)nc1C(=O)Nc1ccnc(C(N)=O)c1 [Compound 201, N-(2-carbamoyl-4-pyridyl)-5,6-dicyclopropyl-3-[2-methoxy-4-(trifluoromethoxy)phenoxy]pyridine-2-carboxamide]",530 nM
13,"COc1cc(OC(F)(F)F)ccc1Oc1cc2c(c(C)c1C(=O)Nc1ccnc(C(N)=O)c1)OC(F)(F)O2 [Compound 202, 4-[[2,2-difluoro-6-[2-methoxy-4-(trifluoromethoxy)phenoxy]-4-methyl-1,3-benzodioxole-5-carbonyl]amino]pyridine-2-carboxamide]",6 nM
14,COc1cc(OC(F)(F)F)ccc1Oc1cc2c(c(C)c1C(=O)Nc1ccc(C(N)=O)nc1)OC(F)(F)O2 [Compound 203],140 nM
15,"COc1cc(OC(F)(F)F)ccc1Oc1ccc(OC2CC(F)(F)C2)c(C)c1C(=O)Nc1ccnc(C(N)=O)c1 [Compound 204, 4-[[3-(3,3-Difluorocyclobutoxy)-6-[2-Methoxy-4-(Trifluoromethoxy)Phenoxy]-2-Methyl-Benzoyl]Amino]Pyridine-2-Carboxamide]",170 nM
16,"COc1cc(OC(F)(F)F)ccc1Oc1cc(C2CC2)c(C2CC2)nc1C(=O)Nc1ccc(C(N)=O)nc1 [Compound 205, N-(6-carbamoyl-3-pyridyl)-5,6-dicyclopropyl-3-[2-methoxy-4-(trifluoromethoxy)phenoxy]pyridine-2-carboxamide]",1100 nM
